# Assay results reported in ChEMBL document CHEMBL3301555, “MMV Malaria Box screening in pLDH viability assay against Plasmodium falciparum gametocytes”.
# Tested on: Plasmodium falciparum
# Experiment: MMV: Measure of pLDH activity as indication of parasite viability. Gametocytogenesis of 3D7 Plasmodium falciparum strain was induced in vitro and asexual parasites were depleted with N-acetylglucosamine. Gametocytes were treated with dihydroartemisinin, epoxomicin, methylene blue, primaquine, puromycin or chloroquine in 96-well plates and the pLDH activity was evaluated using a modified Makler protocol. Mosquito infectivity was measured by the standard membrane feeding assay.
# Type: functional
# Design: concentration or dose not given beside the values
row,Compound,Growth Inhibition [%]
1,COc1cccc(Cn2c(Oc3ccccc3)nc3c2c(=O)n(C)c(=O)n3C)c1,5.4442
2,c1ccc(/C2=N/c3ccccc3/N=C(/c3ccccc3)c3ccccc32)cc1,14.1312
3,CCOc1ccccc1CN1CCc2nc3cc(C(C)(C)C)nn3c(O)c2C1,8.4768
4,CCOC(=O)c1c(C)n(-c2ccccc2)c2ccc(OC(=O)c3cc(OC)c(OC)c(OC)c3)cc12,-1.486
5,Cc1cc(N2CCCC2)nc(Nc2ccc(NC(=O)CCc3ccccc3)cc2)n1,14.278
6,CN1CCN(c2ncnc3c2[nH]c2ccc(Cl)cc23)CC1,7.405
7,COc1ccc(C2c3ccc4ccccc4c3Oc3ncn(CCCn4ccnc4)c(=N)c32)cc1OC (stereo not drawn),22.0606
8,CN(N=O)C1=C(NC2CCCCC2)C(=O)c2ccccc2C1=O,32.2
9,O=C1c2ccccc2-c2nnc(-c3ccc(Br)cc3)cc21,29.9528
10,CN(C)CCNc1cc(-c2ccccc2)nc2ccccc12,2.7026
11,CCOC(=O)C1=C(C)N=c2sc(=Cc3ccccc3O)c(=O)n2C1c1ccc(OC)c2ccccc12 (stereo not drawn),6.5248
12,CCOC(=O)C1=C(C)N=c2sc(=Cc3cc(Cl)ccc3O)c(=O)n2C1c1ccc(OC)cc1 (stereo not drawn),18.9955
13,Cc1nc2ccccc2c(O)c1CC=C(Cl)Cl,28.4855
14,FC(F)(F)c1cccc(Nc2nc3ccccc3nc2Nc2cccc(C(F)(F)F)c2)c1,23.1188
15,COc1ccc(CN2CCCC(C(=O)c3ccc(C(F)(F)F)cc3)C2)c(O)c1 (stereo not drawn),43.708
16,COc1ccc2nc(C)cc(Nc3cccc(O)c3)c2c1.Cl,10.892
17,O=c1nc(C=Cc2ccc(Br)cc2)oc2ccccc12,11.7922
18,COc1ccc2nc(N)nc(C)c2c1,7.6614
19,CC(=O)c1ccc(NC(=O)CSc2nc(-c3ccccc3Cl)ns2)cc1,4.3696
20,O=C(NC1CCCCC1)C(c1cccs1)N(CCc1ccccc1)C(=O)c1ccco1 (stereo not drawn),7.269
21,CC(Oc1ccc(NC(=O)c2cccs2)cc1)C(=O)c1ccc(Cl)cc1 (stereo not drawn),16.818
22,CCC(=O)Nc1nnc(Cc2ccc(OC)c(OC)c2)s1,9.8854
23,Brc1ccc(Nc2nc3ccccc3nc2Nc2ccc(Br)cc2)cc1,6.7896
24,Cc1ccnc(NC(c2cccc(OCc3ccccc3)c2)c2ccc3cccnc3c2O)c1 (stereo not drawn),-1.2034
25,Nc1ccc(-c2nc3cc(Cc4ccc5[nH]c(-c6ccc(N)cc6)nc5c4)ccc3[nH]2)cc1,9.5548

row,Compound,Growth Inhibition [%]
1,COc1ccc(-c2cn3c(C(=O)Nc4ccccc4Cl)c(-c4ccccc4)c4c3n2CCCC4)cc1,1.628
2,CCCCOC(=O)c1ccc(Nc2cc(C)nc3ccc(OC)cc23)cc1,15.2218
3,Cc1cc(Nc2ccc(OCc3ccccc3)cc2)nc2cc(O)ccc12,36.4644
4,CCN(CC)CCNc1ccnc2cc3ccccc3cc12.O=P(O)(O)O,12.0652
5,N=c1c2ccccc2nnn1-c1cccc(C(F)(F)F)c1,20.848
6,COc1cc(-c2nc(-c3ccc(Sc4ccccc4)cc3)c(-c3ccccc3)[nH]2)cc(OC)c1O,10.5558
7,O=c1cc(NC2CCN(CCCc3ccccc3)CC2)c2cc(Cl)ccc2o1,18.578
8,Cc1ccc(OCCCCCCNCCO)c(C)c1,3.067
9,COc1cccc(C(=O)Nc2ccc(-c3nc4ccccc4[nH]3)cc2)c1,15.5734
10,OC(Cn1nnc2ccccc21)Cn1c2ccc(Br)cc2c2cc(Br)ccc21 (stereo not drawn),11.39
11,CCOc1ccc(-n2cc(-c3ccccc3)c3c(SCc4cc(C)ccc4C)ncnc32)cc1,2.789
12,Cc1ccc(C)c(Cn2c(N3CCC(C(=O)NCc4cccs4)CC3)nc3ccccc32)c1,5.2598
13,Cc1ccccc1OCCSc1nc2ccc(NC(=O)c3cccs3)cc2s1,6.631
14,CC1CCN(Cc2c(O)ccc3cc(-c4nc5ccccc5s4)c(=O)oc23)CC1,9.8172
15,CCOc1cc2c(cc1OCC)C(c1cc(Cl)ccc1O)NCC2 (stereo not drawn),24.0914
16,COc1ccc(C2C(C(=O)Nc3cccc(OC)c3)c3ccccc3C(=O)N2C2CCCCC2)cc1 (stereo not drawn),-2.347
17,CCOC(=O)c1cnc2ccc(Cl)cc2c1NCCCN(C)C,5.776
18,CCOc1ccccc1NC(=O)CN1CCN(C(=O)c2ccco2)CC1,5.6622
19,c1ccc2c(NCCc3c[nH]c4ccccc34)c3ccccc3nc2c1,22.8248
20,O=C(Nc1ccc(C23CC4CC(CC(c5ccccc5)(C4)C2)C3)cc1)c1cccs1,4.2535
21,CCN(CC)CCCNc1ccnc2cc3ccccc3cc12,22.6902
22,O=C1c2ccccc2C2=Nc3ccccc3SC(c3cccc(F)c3)C12 (stereo not drawn),29.827
23,Cc1ccccc1OCCSc1nc2ccc(NC(=O)c3ccccc3)cc2s1,-3.751
24,CCOC(=O)c1cnc2c(C)cccc2c1Nc1ccc(C(C)=O)cc1,14.9964
25,O=C(Nc1ccc(-c2nc3cc4ccccc4cc3[nH]2)cc1)c1cccc(Br)c1,12.54

row,Compound,Growth Inhibition [%]
1,Cc1ccc(-c2nc3ccccc3o2)cc1NCc1cc(Cc2ccccc2)ccc1O,21.1902
2,Cc1ccc(C2CC(C(F)(F)F)n3nc(C(=O)N4CCN(C(c5ccccc5)c5ccccc5)CC4)cc3N2)cc1 (stereo not drawn),4.7565
3,Cc1ccc2nc(C)cc(Nc3cccc(C(F)(F)F)c3)c2c1.Cl,-5.193
4,CC(C)(C)c1ccc(C(=O)Nc2c3c(nn2-c2cccc(Cl)c2)CSC3)cc1,9.0986
5,CCOc1cc2c(cc1OCC)C(c1cc(Cl)c(O)c(OCC)c1)NCC2 (stereo not drawn),16.0386
6,COc1ccc(N2CCN(C(CNC(=O)CC(C)(C)C)c3ccc4c(c3)OCO4)CC2)cc1 (stereo not drawn),14.9208
7,COc1ccc(C(O)(CCC(C)C)C(CN2CCOCC2)c2ccc(Cl)cc2)cc1.Cl (stereo not drawn),9.238
8,CCCCCCn1c(=N)n(CC(O)COc2cccc(C)c2)c2ccccc21.Cl (stereo not drawn),34.1668
9,O=C(O)C(=O)O.Oc1ccc(Br)cc1CN1CCN(Cc2cccc(F)c2)CC1,29.456
10,COc1ccc(-c2cc(=O)oc3c4c(ccc23)OCN(Cc2ccc(F)cc2)C4)cc1,25.9468
11,CCOC(=O)C1(Cc2ccccc2)CCN(Cc2cccc(OC)c2O)CC1,37.59
12,O=C(Cc1ccccc1)NC(c1ccc(Cl)cc1)c1c(O)ccc2ccccc12 (stereo not drawn),13.3694
13,Oc1ccc(C(=C(Cl)Cl)c2ccc(O)cc2)cc1,9.2564
14,CCOc1ccc2c(c1)CN(Cc1ccc(Cl)cc1)CO2,25.403
15,CC(C)(C)c1ccc2c(c1)CN(Cc1ccc(Cl)cc1)CO2,36.3995
16,CCCCC(O)(c1ccc(Cl)cc1)C(CN1CCOCC1)c1ccc(Cl)cc1.Cl (stereo not drawn),3.244
17,c1ccc(CNc2nc(Nc3ccccc3)nc3ccccc23)cc1,12.3006
18,CN(C)c1ccc(N2C(N)=NC(N)=NC2(C)C)cc1,5.041
19,COc1ccc(OC)c(C2C3=C(CC(C)(C)CC3=O)N(c3ccc(Cl)c(Cl)c3)C3=C2C(=O)CC(C)(C)C3)c1,21.894
20,COc1ccc(C(=O)NC(c2ccccc2Cl)c2cc(Cl)c3cccnc3c2O)cc1 (stereo not drawn),27.7302
21,Cc1cccc(N2C(=O)C3C(C2=O)C2(c4ccccc4)C(=O)C3(c3ccccc3)C(c3ccc4c(c3)OCO4)=C2c2ccc3c(c2)OCO3)c1 (stereo not drawn),6.488
22,Cc1cc(=O)oc2c1ccc1oc(C(=O)c3ccccc3)c(C)c12,19.4
23,COc1ccc(CN2CCN(Cc3ccccc3)CC2)c(O)c1,26.2585
24,COc1ccc2c(c1OC)C(=O)N1c3ccccc3N=C(c3ccc(C)cc3)CC21 (stereo not drawn),14.488
25,CCCCCCc1cc(O)c2c3c(c(=O)oc2c1)CCC(C)C3 (stereo not drawn),26.585

row,Compound,Growth Inhibition [%]
1,Cl.OC(CNCc1ccccc1)Cn1c2ccccc2c2ccccc21 (stereo not drawn),33.103
2,COc1ccc(CCNC(=O)c2cc(S(=O)(=O)N3CC(C)CC(C)C3)ccc2Sc2ccc(F)cc2)cc1OC (stereo not drawn),10.1532
3,Cc1ccc(F)cc1NC(=O)c1cc(Cl)ccc1Nc1ccccc1,10.2234
4,CCOc1ccc(Nc2c3ccccc3nc3ccccc23)cc1.Cl,2.291
5,OC1CCCCC1C1(NC(=S)Nc2ccccc2)CCCCC1 (stereo not drawn),-6.2185
6,OC1=C2C(=Nc3ccccc3SC2c2ccc(Br)cc2)c2ccccc21 (stereo not drawn),30.3526
7,COc1ccc(C)c2sc(N(Cc3cccnc3)C(=O)c3ccc(C#N)cc3)nc12,-12.2204
8,Clc1ccc2c(N3CCCC3)ccnc2c1,18.4524
9,CCCCCCc1cc2cc(-c3nc4ccccc4[nH]3)c(=Nc3ccccc3C)oc2cc1O,18.3094
10,CCCCCCC(O)(c1ccc(F)cc1)C(CN1CCOCC1)c1ccccc1.Cl (stereo not drawn),-0.4664
11,COc1cc(OC)cc(N2C(=O)N(Cc3ccc(C(C)(C)C)cc3)c3ccccc3S2(=O)=O)c1,5.995
12,CCOc1c(Br)cc(C2C(C(=O)OC)=CN(C)C=C2C(=O)OC)cc1OC,11.9416
13,COc1ccc(C(=O)C2CC2c2ccc(Cl)cc2)cc1 (stereo not drawn),8.002
14,CCCCCn1c(=N)n(CC(O)COc2cccc(C)c2)c2ccccc21.Cl (stereo not drawn),34.3056
15,O=c1c2c([nH]c3ccccc13)CCCC2,19.1396
16,COc1ccc2sc(N(Cc3cccnc3)C(=O)c3ccc(C#N)cc3)nc2c1,-6.4226
17,COc1ccccc1N1C(=N)SC(=Cc2ccc(OCc3ccccc3F)cc2)C1=O,14.0558
18,CCN1CCN(c2c(C(=O)c3ccccc3)cnc3cc(OC)c(OC)cc23)CC1,-1.335
19,Cc1c(C)n(CC(O)CNC2CCCCC2C)c2ccccc12 (stereo not drawn),42.7668
20,Cc1ccc(S(=O)(=O)c2c(COC(=O)c3cccc(C)c3)c(-c3ccccc3)nn2C)cc1,4.058
21,CCOC(=O)c1c[nH]c2c(CC)cccc2c1=O,3.164
22,CCCCc1c(CCC)c(=N)c2ccccc2n1C.I,1.3375
23,CCCCN(CCCC)S(=O)(=O)c1ccc(NC(=O)c2ccco2)cc1,9.666
